Assay results reported in ChEMBL document CHEMBL1201862, “PubChem BioAssay data set” (2004).
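Results reflect a 48-hour exposure of cells in 96-well plates to compound at five concentrations. At the GI50, growth is halved.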 Calls of active or inactive are those of the source. Cut-off read from the data, not from the text of the source: active = GI50 up to about 1.1 µM and inactive = higher.

Experiments:
Assay in all cases: NCI-60 cell line screen, 48 h
786-0 = tested on: 786-0
A549 = tested on: A549
ACHN = tested on: ACHN
CAKI-1 = tested on: CAKI-1
CCRF-CEM = tested on: CCRF-CEM
COLO 205 = tested on: COLO 205
DLD-1 = tested on: DLD-1
DMS-114 = tested on: DMS-114
DMS-273 = tested on: DMS-273
EKVX = tested on: EKVX
HCC 2998 = tested on: HCC 2998
HCT-116 = tested on: HCT-116
HCT-15 = tested on: HCT-15
HL-60 = tested on: HL-60
HOP-18 = tested on: HOP-18
HOP-62 = tested on: HOP-62
HOP-92 = tested on: HOP-92
HT-29 = tested on: HT-29
IGROV-1 = tested on: IGROV-1
K562 = tested on: K562
KM-20L2 = tested on: KM-20L2
KM12 = tested on: KM12
LOX IMVI = tested on: LOX IMVI
LXFL 529 = tested on: LXFL 529
M14 = tested on: M14
M19-MEL = tested on: M19-MEL
MOLT-4 = tested on: MOLT-4
Malme-3M = tested on: Malme-3M
NCI-H226 = tested on: NCI-H226
NCI-H23 = tested on: NCI-H23
NCI-H460 = tested on: NCI-H460
NCI-H522 = tested on: NCI-H522
OVCAR-3 = tested on: OVCAR-3
OVCAR-4 = tested on: OVCAR-4
OVCAR-8 = tested on: OVCAR-8
RPMI-8226 = tested on: RPMI-8226
RXF 393 = tested on: RXF 393
SF-268 = tested on: SF-268
SF-295 = tested on: SF-295
SF-539 = tested on: SF-539
SK-MEL-28 = tested on: SK-MEL-28
SK-MEL-2 = tested on: SK-MEL-2
SK-MEL-5 = tested on: SK-MEL-5
SK-OV-3 = tested on: SK-OV-3
SN12C = tested on: SN12C
SNB-19 = tested on: SNB-19
SNB-75 = tested on: SNB-75
SNB-78 = tested on: SNB-78
SR = tested on: SR
SW-620 = tested on: SW-620
TK-10 = tested on: TK-10
U-251 = tested on: U-251
UACC-62 = tested on: UACC-62
UO-31 = tested on: UO-31
XF498 = tested on: XF498
A498 = tested on: A498
BT-549 = tested on: BT-549
DU-145 = tested on: DU-145
Hs-578T = tested on: Hs-578T
MCF7 = tested on: MCF7
MDA-MB-231 = tested on: MDA-MB-231
MDA-MB-435 = tested on: MDA-MB-435
MDA-N = tested on: MDA-N
NCI/ADR-RES = tested on: NCI/ADR-RES
OVCAR-5 = tested on: OVCAR-5
PC-3 = tested on: PC-3
T47D = tested on: T47D
UACC-257 = tested on: UACC-257

For `COc1ccc(-c2cc(O)c3cc4c(cc3n2)OCO4)c(OC)c1OC`, the GI50 (786-0) was > 100000 nM (inactive), the GI50 (A549) was > 100000 nM (inactive) and the GI50 (ACHN) was 76200 nM (inactive). For the same compound, the GI50 (CAKI-1) was > 100000 nM (inactive), the GI50 (CCRF-CEM) was 76900 nM (inactive) and the GI50 (COLO 205) was 53100 nM (inactive). For the same compound, the GI50 (DLD-1) was > 100000 nM (inactive), the GI50 (DMS-114) was 29400 nM (inactive) and the GI50 (DMS-273) was 38200 nM (inactive). For the same compound, the GI50 (EKVX) was > 100000 nM (inactive), the GI50 (HCC 2998) was > 100000 nM (inactive) and the GI50 (HCT-116) was > 100000 nM (inactive). For the same compound, the GI50 (HCT-15) was over 100000 nM, the GI50 (HL-60) was 37300 nM (inactive) and the GI50 (HOP-18) was 96600 nM (inactive). The GI50 (HOP-62) was 87100 nM (inactive), the GI50 (HOP-92) was 70300 nM (inactive) and the GI50 (HT-29) was > 100000 nM (inactive). The GI50 (IGROV-1) was > 100000 nM (inactive), the GI50 (K562) was 43900 nM (inactive) and the GI50 (KM-20L2) was > 100000 nM (inactive). For the same compound, the GI50 (KM12) was 68900 nM (inactive), the GI50 (LOX IMVI) was > 100000 nM (inactive) and the GI50 (LXFL 529) was > 100000 nM (inactive). The GI50 (M14) was 68100 nM (inactive), the GI50 (M19-MEL) was 95100 nM (inactive) and the GI50 (MOLT-4) was 62700 nM (inactive). The GI50 (Malme-3M) was 40400 nM (inactive), the GI50 (NCI-H226) was > 100000 nM (inactive) and the GI50 (NCI-H23) was > 100000 nM (inactive). The GI50 (NCI-H460) was 33600 nM (inactive), the GI50 (NCI-H522) was 96200 nM (inactive) and the GI50 (OVCAR-3) was > 100000 nM (inactive). The GI50 (OVCAR-4) was > 100000 nM (inactive), the GI50 (OVCAR-8) was > 100000 nM (inactive) and the GI50 (RPMI-8226) was 82800 nM (inactive). The GI50 (RXF 393) was > 100000 nM (inactive), the GI50 (SF-268) was > 100000 nM (inactive) and the GI50 (SF-295) was 76600 nM (inactive). The GI50 (SF-539) was > 100000 nM (inactive), the GI50 (SK-MEL-28) was 96600 nM (inactive) and the GI50 (SK-MEL-2) was > 100000 nM (inactive). For the same compound, the GI50 (SK-MEL-5) was 41500 nM (inactive), the GI50 (SK-OV-3) was 50800 nM (inactive) and the GI50 (SN12C) was > 100000 nM (inactive). For the same compound, the GI50 (SNB-19) was > 100000 nM (inactive), the GI50 (SNB-75) was 27700 nM (inactive) and the GI50 (SNB-78) was > 100000 nM (inactive). For the same compound, the GI50 (SR) was 24400 nM (inactive), the GI50 (SW-620) was 84900 nM (inactive) and the GI50 (TK-10) was > 100000 nM (inactive). The GI50 (U-251) was > 100000 nM (inactive), the GI50 (UACC-62) was 47600 nM (inactive) and the GI50 (UO-31) was > 100000 nM (inactive). The GI50 (XF498) was 66500 nM (inactive).
For `COc1ccc2c(c1)c1c(C)c3cnccc3c(C)c1n2CCCN`, the GI50 (786-0) was 28.8 nM (active), the GI50 (A498) was 451 nM (active) and the GI50 (A549) was 296 nM (active). For the same compound, the GI50 (ACHN) was 124 nM (active), the GI50 (BT-549) was 1290 nM (inactive) and the GI50 (COLO 205) was 177 nM (active). For the same compound, the GI50 (DLD-1) was 85.3 nM (active), the GI50 (DMS-114) was 273 nM (active) and the GI50 (DMS-273) was 100 nM (active). For the same compound, the GI50 (DU-145) was 60.3 nM (active), the GI50 (EKVX) was 307 nM (active) and the GI50 (HCC 2998) was 457 nM (active). For the same compound, the GI50 (HCT-116) was 55.6 nM (active), the GI50 (HCT-15) was 92.5 nM and the GI50 (HOP-18) was 420 nM (active). The GI50 (HOP-62) was 444 nM (active), the GI50 (HOP-92) was 96.8 nM (active) and the GI50 (HT-29) was 117 nM (active). The GI50 (Hs-578T) was 277 nM (active), the GI50 (IGROV-1) was 313 nM (active) and the GI50 (KM-20L2) was 119 nM (active). For the same compound, the GI50 (LOX IMVI) was 55.6 nM (active), the GI50 (M14) was 145 nM (active) and the GI50 (M19-MEL) was 203 nM (active). For the same compound, the GI50 (MCF7) was 251 nM (active), the GI50 (MDA-MB-231) was 145 nM (active) and the GI50 (MDA-MB-435) was 50.2 nM (active). For the same compound, the GI50 (MDA-N) was 114 nM (active), the GI50 (Malme-3M) was 681 nM (active) and the GI50 (NCI-H23) was 216 nM (active). For the same compound, the GI50 (NCI-H460) was 65 nM (active), the GI50 (NCI-H522) was 313 nM (active) and the GI50 (NCI/ADR-RES) was 273 nM (active). The GI50 (OVCAR-3) was 453 nM (active), the GI50 (OVCAR-4) was 54.1 nM (active) and the GI50 (OVCAR-5) was 431 nM (active). For the same compound, the GI50 (OVCAR-8) was 178 nM (active), the GI50 (PC-3) was 71.5 nM (active) and the GI50 (RXF 393) was 50 nM (active). For the same compound, the GI50 (SF-295) was 257 nM (active), the GI50 (SF-539) was 405 nM (active) and the GI50 (SK-MEL-28) was 458 nM (active). The GI50 (SK-MEL-2) was 401 nM (active), the GI50 (SK-MEL-5) was 383 nM (active) and the GI50 (SK-OV-3) was 415 nM (active). For the same compound, the GI50 (SN12C) was 234 nM (active), the GI50 (SNB-19) was 290 nM (active) and the GI50 (SNB-75) was 378 nM (active). The GI50 (SNB-78) was 286 nM (active), the GI50 (SR) was < 10 nM (active) and the GI50 (SW-620) was 46.6 nM (active). For the same compound, the GI50 (T47D) was 284 nM (active), the GI50 (TK-10) was 248 nM (active) and the GI50 (UACC-257) was 518 nM (active). For the same compound, the GI50 (UACC-62) was 410 nM (active), the GI50 (UO-31) was 524 nM (active) and the GI50 (XF498) was 422 nM (active).
